Laboratory results from patent US20130236619A1, “ANTI-MICROBIAL FOOD PROCESSING COMPOSITIONS INCLUDING CERAGENIN COMPOUNDS AND METHODS OF USE” (Brigham Young University, priority 2012, published 2013).

How the values were obtained:
spoilage microorganisms = assay: Example 1: shelf-life of poultry carcasses dipped in wash composition; settings: wash composition including 100 ppm peracetic acid
Method: A study was performed to determine the effectiveness of an anti-microbial rinse composition including relatively low concentrations of a ceragenin compound in controlling growth of bacteria and extending shelf-life of a poultry food product. Three different wash compositions were prepared. Aqueous wash composition 1 (the control) included no ceragenin compound or other anti-microbial agent. Aqueous wash composition 1 was simply tap water. […] The ceragenin compound employed was CSA-44. Poultry carcasses (chicken carcasses) were dipped (e.g., immersed) for 30 seconds into the given wash composition and mechanically agitated to mimic the action of a finishing chiller used in commercial processing. After the 30 second application time, the carcasses were immediately vacuum packaged and stored in a refrigerator at 4° C. Three carcasses from each treatment were tested every third day beginning at day 0 and ending at day 21 to monitor their associated levels of microorganisms.
Poultry is considered to be spoiled when it reaches a level of 10^6 Colony Forming Units (“CFUs”)/ml of spoilage microorganisms in the rinsate. The control, i.e., poultry carcasses treated with wash composition 1, reached this limit on day 12. […] By day 18, the poultry carcasses treated with wash composition 2 had exceeded this limit with a value of about 10^6.5 CFUs/ml. […]

Salmonella bacteria = assay: Example 2: Salmonella inoculated poultry carcasses dipped in wash composition; settings: peracetic acid wash composition
Method: (§1) Example 2 was performed to determine the effectiveness of an anti-microbial wash composition including a ceragenin compound in controlling growth of Salmonella bacteria by fighting off a Salmonella inoculation. Example 3 was similarly performed to determine the effectiveness of the wash composition in controlling growth of Campylobacter bacteria by fighting off a Campylobacter inoculation. Examples 2 and 3 simulate the effectiveness of the present anti-microbial wash compositions to kill Salmonella and Campylobacter on a poultry carcass where the poultry carcass has become contaminated with Salmonella bacteria or Campylobacter bacteria.
(§2) A total of 15 poultry carcasses (chicken carcasses) were sampled for these tests. The 15 poultry carcasses were divided into five groups of three each. Three carcasses were left untreated to serve as a negative control in order to observe natural levels of bacteria present on the carcass. The remaining 12 carcasses were then inoculated with 1 mL of Salmonella and 1 mL of Campylobacter. The carcasses were allowed to dry for 20 minutes in order for the bacteria to adhere to the surface of the poultry carcasses. One group of three of the inoculated poultry carcasses, designated the positive control, were then rinsed with a wash composition including no anti-microbial agent to determine the level of bacteria after inoculation. […]

Campylobacter bacteria = assay: Example 3: Campylobacter inoculated poultry carcasses dipped in wash composition; settings: peracetic acid wash composition
Method: as §1, §2

SMILES: CC(=O)OO [peracetic acid]
- extension of shelf-life relative to a control wash composition (spoilage microorganisms): no extension of shelf-life
- reduction of the presence of Salmonella bacteria (Salmonella bacteria): effective in reducing
- reduction of the presence of Campylobacter bacteria (Campylobacter bacteria): effective in reducing
